From US9233971B2, “Lipomacrocycles and uses thereof” (priority 2010, dated 2016)

Columns and labels:
[1] = system: APOB mRNA in liver; test: In vivo gene knockdown, liposomal siRNA formulation (Example 3), APOB siRNA; conditions: dose 3 mg/kg intravenously, CD1 mice, liver harvested three days later, real-time RT-PCR, GAPDH reference
Protocol: (§1) Each liposome formulation was made by mixing lipids of each lipomacrocycle compound (Table 1) combined with DSPC, DMG-PEG 2K, and cholesterol at the weight ratio of 3.85:0.42:0.21:0.79 in ethanol and siRNA in water. Then 5% dextrose water was added in each formulation before dosing to mice.
(§2) All procedures used in animal studies conducted were approved by the Institutional Animal Care and Use Committee (IACUC) and were consistent with local, state and federal regulations as applicable. Mice, rats, and rabbits received siRNA formulations intravenously at dose volume of 0.2 ml, 1 ml, or 10 ml, respectively. Animals were sacrificed 2 to 7 days later. Tissues were harvested and mRNA was isolated with Turbocapture kit (Qiagen) for analyzing change of gene expression with real-time RT-PCR method (SensiMix SYBR One-Step Kit, Bioline). Serum was harvested for analyzing blood chemistry.
(§3) CD1 mice were dosed with lipid particle (Table 1) or liposome (Table 2) siRNA formulation intravenousely and the different tissues were harvested three days later. The gene expression was analyzed with real-time RT-PCR method (for liver, GAPDH as reference gene; for lung and bone marrow, GAPDG and β-actin as reference genes).

[2] = system: SSB mRNA in liver; test: In vivo gene knockdown, lipid particle siRNA formulation (Example 4), SSB siRNA; conditions: lipid particles, CD1 mice, liver harvested three days later, real-time RT-PCR, GAPDH reference
Protocol: Lipid Particle formulations were made by first mixed siRNA in an aqueous solution with DOTMA in organic solvent to produce a water-insoluble precipitate. After isolating and drying the precipitate, the precipitate was dissolved in chloroform and further mixed with other lipids as following: Each lipid particle formulation was consisting of 1 part DOTMA+siRNA complex/5 parts any lipomacrocycle compound (Table 1)/1.5 parts N 6-tetrakis (3-aminopropyl)-1,3-propanediamine cholesteryl carbamate/2.2 parts 1,2-dilinoleoyl-sn-glycero-3-phosphoethanolamine/10.08 parts cholesterol PEG-660/4.32 parts cholesterol PEG-660/0.6 parts cholesterol (weight/weight). All the components were dissolved in chloroform and mixed together. Then, the mixtures were dried overnight in Speedvac. The dried formulations were hydrated by adding in certain amount of 5% dextrose water before dosing to animals intravenously.
as §2, §3

[3] = system: SSB mRNA in liver; test: In vivo gene knockdown, liposomal siRNA formulation (Example 3), SSB siRNA; set-up: species or system CD1 mice; conditions: liposomal formulation, SSB siRNA, dose 3.2 mg/kg intravenously, CD1 mice, liver harvested three days later, real-time RT-PCR, GAPDH reference
Protocol: as §1, §2, §3

Row | SMILES | Targeted mRNA remain in liver [1] | Targeted mRNA remain in liver ([2]; dose 3.2 mg/kg intravenously) | Targeted mRNA remain in liver [3] | Targeted mRNA remain in liver ([2]; dose 3 mg/kg intravenously)
1 | CC(C)(C)c1ccc(C(=O)OCC(O)CN(CCCN(CCCCN(CCCN(CC(O)COC(=O)c2ccc(C(C)(C)C)cc2)CC(O)COC(=O)c2ccc(C(C)(C)C)cc2)CCCN(CC(O)COC(=O)c2ccc(C(C)(C)C)cc2)CC(O)COC(=O)c2ccc(C(C)(C)C)cc2)CCCN(CC(O)COC(=O)c2ccc(C(C)(C)C)cc2)CC(O)COC(=O)c2ccc(C(C)(C)C)cc2)CC(O)COC(=O)c2ccc(C(C)(C)C)cc2)cc1 (stereo not drawn) [Compound T4C11] | 1.07 | – | – | –
2 | CCCCCCCCCCCCCCOCC(O)CN1CCN(Cc2ccccc2)CCN(CC(O)COCCCCCCCCCCCCCC)CCN(Cc2ccccc2)CC1 (stereo not drawn) [Compound M6C1] | – | 0.64 | 0.98 | –
3 | CCCCCCCCCCCCCCOCC(O)CN(CCCN(CCCN(CCCN(CC(O)COCCCCCCCCCCCCCC)CC(O)COCCCCCCCCCCCCCC)CCCN(CC(O)COCCCCCCCCCCCCCC)CC(O)COCCCCCCCCCCCCCC)CCCN(CC(O)COCCCCCCCCCCCCCC)CC(O)COCCCCCCCCCCCCCC)CC(O)COCCCCCCCCCCCCCC (stereo not drawn) [Compound T3C1] | – | 0.18 | 0.13 | –
4 | CCCCCCCCCCCCOCC(O)CN(CCCN(CCCCN(CCCN(CC(O)COCCCCCCCCCCCC)CC(O)COCCCCCCCCCCCC)CCCN(CC(O)COCCCCCCCCCCCC)CC(O)COCCCCCCCCCCCC)CCCN(CC(O)COCCCCCCCCCCCC)CC(O)COCCCCCCCCCCCC)CC(O)COCCCCCCCCCCCC (stereo not drawn) [Compound T4C10] | 0.82 | – | – | –
5 | CCCCC(CC)COCC(O)CN1CCN(CC(O)COCC(CC)CCCC)CCN(CC(O)COCC(CC)CCCC)CCN(CC(O)COCC(CC)CCCC)CCN(CC(O)COCC(CC)CCCC)CCN(CC(O)COCC(CC)CCCC)CC1 (stereo not drawn) [Compound M10C3] | – | – | – | 0.43
6 | CCCCCCCCCCCCCCOCC(O)CN1CCCN(CC(O)COCCCCCCCCCCCCCC)CCCN(CC(O)COCCCCCCCCCCCCCC)CCC1 (stereo not drawn) [Compound M9C1] | – | 0.2 | 0.3 | –
7 | CCCCCCCCCCC(O)CN1CCN(CC(O)CCCCCCCCCC)CCN(CC(O)CCCCCCCCCC)CCN(CC(O)CCCCCCCCCC)CCN(CC(O)CCCCCCCCCC)CCN(CC(O)CCCCCCCCCC)CC1 (stereo not drawn) [Compound M10C4] | – | – | – | 0.63
8 | CCCCCCCCCCCCCCC(O)CN1CCN(Cc2ccccc2)CCN(CC(O)CCCCCCCCCCCCCC)CCN(CC(O)CCCCCCCCCCCCCC)CC1 (stereo not drawn) [Compound M1C7] | – | 0.35 | 0.47 | –
9 | CCCCCCCCCCCCC(O)CN1CCN(CC(O)CCCCCCCCCCCC)CCN(CC(O)CCCCCCCCCCCC)CCN(CC(O)CCCCCCCCCCCC)CC1 (stereo not drawn) [Compound T2C6] | – | 0.86 | 0.66 | –
10 | CC(C)(C)C(O)(CCc1ccc(Cl)cc1)CN(CCCN(CCCCN(CCCN(CC(O)(CCc1ccc(Cl)cc1)C(C)(C)C)CC(O)(CCc1ccc(Cl)cc1)C(C)(C)C)CCCN(CC(O)(CCc1ccc(Cl)cc1)C(C)(C)C)CC(O)(CCc1ccc(Cl)cc1)C(C)(C)C)CCCN(CC(O)(CCc1ccc(Cl)cc1)C(C)(C)C)CC(O)(CCc1ccc(Cl)cc1)C(C)(C)C)CC(O)(CCc1ccc(Cl)cc1)C(C)(C)C (stereo not drawn) [Compound T4C18] | 1.56 | – | – | –
